Results reported in patent publication US20240166626A1, “Compounds and Methods for Preventing, Treating, or Ameliorating Airway Disease” (THOMAS JEFFERSON UNIVERSITY, priority 2021, published 2024).

Assays:
Format in all cases: cell-based
HASM cells = assay: Human airway smooth muscle cell scratch (migration) assay; conditions: 24 hours post scratch, 20 ng/mL PDGF, relative to PDGF alone
Method: FIGS. 4A-4F: DFPQ inhibits internalization of the β2AR and protects from agonist induced desensitization in cell and tissue models. FIG. 4A: Effect of DFPQ on agonist-promoted internalization of the β2AR. HEK 293 cells stably expressing FLAG-β2AR were pre-incubated with 0.1% DMSO or 10 μM DFPQ for 30 min and then stimulated with the indicated concentrations of ISO for up to 60 min. Cells were fixed and receptor surface expression was measured by ELISA. […] Cells were lysed and cAMP production was measured by ELISA. […] FIG. 4C: Mouse airway tissue were contracted with 1 μM methacholine for 5 min and then incubated overnight with 1 μM ISO±1 μM DFPQ. Airway slices were washed, re-contracted with methacholine, and incubated with ISO for 1 hour (n=4 bronchioles). Airway contractility was measured by luminal area of bronchioles by microscopy at various times. FIG. 4D: Bar graphs represent normalized ISO-promoted relaxation from methacholine contraction on day 2 of treatment at the 25 min timepoint from 4 tracheal rings. *, p<0.05 FIG. 4E: HASM cells were scratched and incubated overnight in PDGF containing serum free media. Cells were imaged to evaluate migration into the scratched area. FIG. 4F: Densitometric analysis of migration into scratched area (n=3 experiments). ***, p<0.001; **, p<0.01
Cell culture GLOSENSOR™ cells (Promega) were maintained in Dulbecco's modified Eagle's medium (DMEM) containing 10% fetal bovine serum (FBS) and 200 μg/ml Hygromycin B. […]® ADRB2 cells (DiscoveRx) were maintained with the AssayComplete™ Cell Culture kit (DiscoveRx catalog #92-3107G). […] Cells were read every three minutes for 18 minutes on a PolarStar Optima plate reader (BMG) to establish peak signal. ISO was added to each well to a final concentration of 1 μM, and luminescence was determined in kinetic mode at room temperature (23-25° C.). Response was analyzed relative to forskolin (7 μM) and alprenolol (1 μM) as positive and negative controls, respectively. […] Luminescence was determined at room temperature (23-25° C.) on a PolarStar Optima plate reader (BMG). […]

β2AR [1] = target: T1, β2AR (Homo sapiens, UniProt P07550); assay: GLOSENSOR cAMP production assay (bias = GloSensor IC50:PathHunter IC50); conditions: GloSensor IC50:PathHunter IC50 ratio
T1 sequence (P07550 whole entry): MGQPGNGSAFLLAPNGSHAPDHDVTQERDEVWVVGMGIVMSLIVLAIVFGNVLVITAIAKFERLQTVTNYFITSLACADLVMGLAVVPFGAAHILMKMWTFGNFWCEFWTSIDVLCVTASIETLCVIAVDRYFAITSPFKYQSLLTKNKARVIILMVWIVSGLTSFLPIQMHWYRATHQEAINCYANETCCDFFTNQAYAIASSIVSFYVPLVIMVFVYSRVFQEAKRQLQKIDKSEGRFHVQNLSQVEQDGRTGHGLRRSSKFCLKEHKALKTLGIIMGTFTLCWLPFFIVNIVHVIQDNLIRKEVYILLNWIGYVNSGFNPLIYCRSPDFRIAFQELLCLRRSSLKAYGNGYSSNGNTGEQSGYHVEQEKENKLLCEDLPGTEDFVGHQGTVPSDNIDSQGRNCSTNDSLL

β2AR [2] = target: T1, β2AR; assay: […] high throughput assay for β-arrestin recruitment to β2AR; conditions: PathHunter, ISO-promoted β-arrestin2 recruitment
[3] = Table 2, scaffold drawing 253, R1/R2 substituents
[4] = Table 3, scaffold drawing 254, R1/R3 substituents

Row | Structure (SMILES) | Arrestin fold bias (β2AR [1]; Table 2) | IC50 (β2AR [2]; [3]) | Arrestin fold bias (β2AR [1]; Table 3) | IC50 (β2AR [2]; [4]) | HASM cell migration into scratched area (HASM cells)
1 | CC(C)NCC(O)c1ccc(O)c(O)c1 (stereo not shown) [ISO, isoproterenol] |  |  |  |  | reduced migration
2 | c1ccc2c(NC3CCCCC3)nc(NC3CCCCC3)nc2c1 [cyclohexyl / N/A] | >10 | 4 ± 1 µM |  |  | 
3 | Clc1ccc(Nc2nc(NC3CCCCC3)c3ccccc3n2)cc1Cl [m,p-dichlorophenyl / N/A] | >100 | 3 ± 0.7 µM |  |  | 
4 | Fc1ccc(Nc2nc(NC3CCCCC3)c3cc(Br)ccc3n2)cc1F [m,p-difluorophenyl / 6-bromo] | >900 | 0.03 ± 0.02 µM |  |  | 
5 | Fc1ccc(Nc2nc(NC3CCCCC3)c3cc(Cl)ccc3n2)cc1F [m,p-difluorophenyl / 6-chloro] | >400 | 0.12 ± 0.05 µM |  |  | 
6 | Cc1ccc2nc(Nc3ccc(F)c(F)c3)nc(NC3CCCCC3)c2c1 [m,p-difluorophenyl / 6-methyl] | >45 | 0.36 ± 0.18 µM |  |  | 
7 | Fc1ccc(Nc2nc(NC3CCCCC3)c3cc(C(F)(F)F)ccc3n2)cc1F [m,p-difluorophenyl / 6-trifluoromethyl] | >1000 |  |  |  | 
8 | COc1ccc(Nc2nc(NC3CCCCC3)c3ccccc3n2)cc1OC [m,p-dimethoxyphenyl / N/A] | >7 | 14 ± 3 µM |  |  | 
9 | Clc1cccc(CNc2nc(NC3CCCCC3)c3ccccc3n2)c1 [m-chlorobenzyl / N/A] | No | 21 ± 2 µM |  |  | 
10 | Clc1cccc(Nc2nc(NC3CCCCC3)c3ccccc3n2)c1 [m-chlorophenyl / N/A] | >10 | 6 ± 0.8 µM |  |  | 
11 | OCc1cc(C(O)CNCCCCCCOCCCCc2ccccc2)ccc1O (stereo not shown) [salmeterol] |  |  |  |  | reduced migration

More lines, main results first:

Row | Arrestin fold bias (β2AR [1]; Table 2) | IC50 (β2AR [2]; [3]) | Arrestin fold bias (β2AR [1]; Table 3) | IC50 (β2AR [2]; [4]) | Structure (SMILES) | HASM cell migration into scratched area (HASM cells)
12 |  |  | >10 | 8 ± 5 µM | CC1CCCC(Nc2nc(Nc3cc(Cl)cc(Cl)c3)nc3ccccc23)C1 (stereo not shown) [m-dichlorophenyl / 3-methylcyclohexyl] | 
13 |  |  | No | 30 ± 4 µM | Clc1cc(Cl)cc(Nc2nc(NCc3ccccc3)c3ccccc3n2)c1 [m-dichlorophenyl / benzyl] | 
14 |  |  | ~2 | 9 ± 3 µM | Clc1cc(Cl)cc(Nc2nc(NC3CCCC3)c3ccccc3n2)c1 [m-dichlorophenyl / cyclopentyl] | 
15 | >200 | 0.2 ± 0.05 µM |  |  | Fc1cc(F)cc(Nc2nc(NC3CCCCC3)c3ccccc3n2)c1 [m-difluorophenyl / N/A] | 
16 | ~3 | 3 ± 1 µM |  |  | FC(F)(F)c1cccc(Nc2nc(NC3CCCCC3)c3ccccc3n2)c1 [m-trifluoromethylphenyl / N/A] | 
17 | >100 | 0.8 ± 0.2 µM |  |  | Clc1ccc(Nc2nc(NC3CCCCC3)c3ccccc3n2)cc1 [p-chlorophenyl / N/A] | 
18 | >200 | 0.23 ± 0.07 µM |  |  | Fc1ccc(Nc2nc(NC3CCCCC3)c3ccccc3n2)cc1 [p-fluorophenyl / N/A] | 
19 | ~4 | 8 ± 2 µM |  |  | Cc1ccc(CNc2nc(NC3CCCCC3)c3ccccc3n2)cc1 [p-methylbenzyl / N/A] | 
20 | >100 | 3 ± 0.7 µM |  |  | c1ccc(Nc2nc(NC3CCCCC3)c3ccccc3n2)cc1 [phenyl / N/A] | 
